According to patent US12508323B2, “Method of treatment of colorectal, breast and lung cancer with metal containing immune agonist complexes” (HANGZHOU XINGAO BIOTECHNOLOGY CO., LTD., priority 2020, dated 2025):

Key:
[1] = test system: lung cancer Lewis tumor line LL/2; assay: Subcutaneous transplantation tumor model, LL/2 in C57BL/6 mice; format: in vivo; details: i.p. 10 mg/kg (nanobody 200 μg/mouse) once a day for 21 days
Protocol: Specific pathogen free (SPF)-grade BALB/C and C57BL/6 male mice, aged 7-8 weeks and weighing 20-22 g, were purchased from Shanghai Slac Laboratory Animal Co., Ltd (Laboratory animal quality certificate number: SCXK (Shanghai)2007-0005.
Mice were injected intraperitoneally with the immune agonist or complex with a dose of 10 mg/kg, or each injected intraperitoneally with 200 μg of the nanobody.
(§1) Administration route: intraperitoneal injection.
(§2) Frequency: once a day for consecutive 21 days.
Cancer cells were cultured, passaged, collected at the logarithmic phase of cells, and prepared into a cell suspension at a concentration of (1.0×10^7) per ml. Mice were injected with 0.2 ml of the cell suspension at the axilla of the right forelimb (cell number 2.0×10^6 cells/each), and were tumorigenic in about 8 days. These mice were randomly divided into 10 groups equally, namely, group A: negative control group (saline group), group B: positive control (cGAMP) group (dose: 10 mg/kg), group C: MncGAMP group (dose: 10 mg/kg), group D: anti-PD-L1 nanobody group, group E: anti-CD47 nanobody group, group F: anti-TfR1 nanobody group, group G: complex V group (dose: 10 mg/kg), group H: complex VI group (dose: 10 mg/kg), group I: complex IX group (dose: 10 mg/kg), and group J: complex VIII group (10 mg/kg). […]
The data were expressed as ×±s and processed by SPSS10.0 software. […]

amyloid plaques = assay: Thioflavin S staining of brain amyloid plaques in AD mice; format: in vivo; details: 10 mg/kg i.p., 60 days of administration
Protocol: Seven groups of AD mice in the above examples were tested in view of reduction of amyloid plaques in the brains of AD mice after 60 days of administration. The experiment was a thioflavin S staining experiment, and the experimental procedures were described below. 60 days after drug administration, brain tissue of mice was taken, fixed, embedded with paraffin, sectioned, de-waxed with xylene, dehydrated with ethanol gradient, and rinsed with TBS solution three times. After that, 0.3% thioflavin S (dissolved in 50% ethanol) was dropped on the tissue followed by incubation for 10 min at room temperature, rinsing with 50% ethanol three times, rinsing with TBS solution, drying in the shade, and sealing. Then the issue was examined by laser confocal microscopy (Leica, Germany) to detect the changes in the amount of amyloid plaque deposition in the brain of AD mice.

OVA = assay: Immune adjuvant function with OVA immunization (ELISA); format: in vivo; details: values of log2; s.c. 10 μg OVA + 100 μg adjuvant on days 1, 7, 14; sampled day 21; C57BL/6 mice
Protocol: Specific pathogen free (SPF)-grade C57BL/6 male mice, aged 7-8 weeks and weighing 20-22 g, were purchased from American Animals Inc. The aluminum adjuvant and OVA were purchased from Invitrogen company.
The mice were divided into 7 groups (10 mice in each group), namely, group A: OVA+cGAMP; group B: OVA+MncGAMP; group C: OVA+complex VIII; group D: OVA+complex IV; group E: OVA+complex VII; group F: OVA+aluminum adjuvant; and group G: OVA.
Each mouse was injected subcutaneously with 10 μg of OVA and 100 μg of aluminum adjuvant or a different species of cGAMP (or the immune agonist complex), and those not injected were negative control groups. Immunization was performed once on days 1, 7, and 14, respectively, and lung lavage fluid was obtained and blood samples taken on day 21. The potency of the immune agonist and the complex as adjuvants to induce nanobody production was determined by ELISA, and the results were shown in Table 7.

[2] = test system: murine breast cancer cell line 4T1-luc; assay: Anti-metastasis of murine breast cancer 4T1-luc, in vivo optical imaging; details: 4T1-luc in BALB/C mice, i.p. 10 mg/kg (nanobody 200 μg/mouse) once a day, sites of metastasis
Protocol: Specific pathogen free (SPF)-grade BALB/C male mice, aged 7-8 weeks and weighing 20-22 g, were purchased from Shanghai Slac Laboratory Animal Co., Ltd (Laboratory animal quality certificate number: SCXK (Shanghai)2007-0005.
Mice were injected intraperitoneally with the immune agonist complex or MncGAMP with a dose of 10 mg/kg, or each injected intraperitoneally with 200 μg of the nanobody.
as §1, §2
Used herein was murine breast cancer cell line 4T1-luc (luciferase labeled tumor cells), which was provided by medical department of Zhejiang University School. The 4T1-luc cell line in BALB/C mice had similar growth and metastatic properties to breast tumors in humans, which was an animal model for […] breast cancer in humans. The 4T1-luc cell line spontaneously produced highly metastatic tumors that metastasize to the lung, liver, lymph nodes, and brain, while forming the primary site at the injection site. Luciferase was a general term for a class of enzymes in living organisms that catalyze the oxidative luminescence of luciferin or firefly aldehyde, which was derived from organisms naturally capable of luminescence.
Cancer cells were cultured, passaged, collected at the logarithmic phase of cells, and prepared into a cell suspension at a concentration of (1.0×10^7) per ml. Mice were injected with 0.2 ml of the cell suspension at the axilla of the right forelimb (2.0×10^6 cells/each), and were injected with drugs the day after inoculation with breast cancer cells. […]
Metastasis of murine breast cancer in mice was detected using a small animal in vivo optical imaging system (Perkin Elmer, IVIS Lumina XRMS Series III) on days 5, 10, 20, and 30 after drug administration, respectively, which was done at Shanghai Medical College of Fudan University.

`Nc1nc(=O)c2ncn(C3OC4COP(=O)(O)OC5C(COP(=O)(O)OC3C4O)OC(n3cnc4c(N)ncnc43)C5O)c2[nH]1` (centres unmarked) [cGAMP, 2′3′-cGAMP] was tested, and the “Average tumor weight” value ([1]; n = 10, mean ± SD) was 1.138 ± 0.127 g, the “Average tumor inhibition rate (%)” value ([1]; vs negative control tumor weight) was 60.0% and the “Average count points of fluorescence intensity of amyloid plaques in brain tissues of AD mice (field of view area)” value (amyloid plaques) was 1800 ± 160. For the same molecule, the “Alveolar lavage fluid (IgA)” value (OVA) was 2.3 ± 0.2, the “Serum (IgG)” value (OVA) was 17.5 ± 0.9 and the “Metastasis of breast cancer, Day 5” value ([2]; day 5 after drug administration) was “No”. The “Metastasis of breast cancer, Day 10” value ([2]; day 10 after drug administration) was “No” and the “Metastasis of breast cancer, Day 20” value ([2]; day 20 after drug administration) was “No”.
